Source: the NIST ThermoML archive (doi:10.1021/acs.jced.8b00452)
Values joined by “and” are separate entries in the source; they are usually repeats but may differ in a detail not shown here. Identical values can stand only once. Numbers after ± are expanded uncertainties.

Details: isochoric method

C=CC(F)(F)F [1,1,1-trifluoro-2-propene]
Details	mass density [kg/m3]
328 K, 2263.6 kPa, Liquid	899.4 ± 1.4
330 K, 1111.5 kPa, Gas	50 ± 0.2
330 K, 3005.2 kPa, Liquid	899.2 ± 1.4
333 K, 4120.1 kPa, Liquid	899 ± 1.4
335 K, 4863.3 kPa, Liquid	898.9 ± 1.4
338 K, 5981.5 kPa, Liquid	898.8 ± 1.4
340 K, 1167.6 kPa, Gas	49.9 ± 0.1
340 K, 6726 kPa, Liquid	898.7 ± 1.4
348 K, 2175.9 kPa, Liquid	796.5 ± 1.2
349 K, 2433.4 kPa, Liquid	796.4 ± 1.2
350 K, 1222.4 kPa, Gas	49.9 ± 0.1
350 K, 2692.4 kPa, Liquid	796.4 ± 1.2
351 K, 2951.1 kPa, Liquid	796.4 ± 1.2
352 K, 3211.8 kPa, Liquid	796.4 ± 1.2
353 K, 3472 kPa, Liquid	796.3 ± 1.2
354 K, 3732.3 kPa, Liquid	796.3 ± 1.2
355 K, 2036.4 kPa, Gas	99.8 ± 0.2
355 K, 3993.5 kPa, Liquid	796.3 ± 1.2
356 K, 4255.7 kPa, Liquid	796.3 ± 1.2
357 K, 4517.5 kPa, Liquid	796.2 ± 1.2
358 K, 4781.3 kPa, Liquid	796.2 ± 1.2
360 K, 1276.2 kPa, Gas	49.9 ± 0.1
360 K, 2101.2 kPa, Gas	99.8 ± 0.2
360 K, 5309.1 kPa, Liquid	796.2 ± 1.2
362 K, 5836.4 kPa, Liquid	796.1 ± 1.2
364 K, 2872 kPa, Fluid (supercritical or subcritical phases)	699.8 ± 1.1
364 K, 6364.7 kPa, Liquid	796.1 ± 1.2
366 K, 3226.1 kPa, Fluid (supercritical or subcritical phases)	699.8 ± 1.1
366 K, 6895.5 kPa, Liquid	796 ± 1.2
368 K, 3583.4 kPa, Fluid (supercritical or subcritical phases)	699.7 ± 1.1
370 K, 1329.2 kPa, Gas	49.9 ± 0.1
370 K, 2227.8 kPa, Gas	99.8 ± 0.2
370 K, 3943.7 kPa, Fluid (supercritical or subcritical phases)	699.7 ± 1.1
372 K, 4306.9 kPa, Fluid (supercritical or subcritical phases)	699.7 ± 1.1
374 K, 4672.5 kPa, Fluid (supercritical or subcritical phases)	699.6 ± 1.1
376 K, 5040.5 kPa, Fluid (supercritical or subcritical phases)	699.6 ± 1.1
378 K, 5410 kPa, Fluid (supercritical or subcritical phases)	699.5 ± 1.1
379 K, 3659.3 kPa, Gas	408.6 ± 0.9
380 K, 1381.9 kPa, Gas	49.9 ± 0.1
380 K, 2351.3 kPa, Gas	99.8 ± 0.2
380 K, 3350.9 kPa, Gas	199.9 ± 0.4
380 K, 3727.7 kPa, Gas	408.6 ± 0.8
380 K, 5781.1 kPa, Fluid (supercritical or subcritical phases)	699.5 ± 1.1
382 K, 6153.3 kPa, Fluid (supercritical or subcritical phases)	699.5 ± 1.1
384 K, 6527.3 kPa, Fluid (supercritical or subcritical phases)	699.4 ± 1.1
385 K, 3499.4 kPa, Gas	199.9 ± 0.5
385 K, 4070.4 kPa, Gas	408.5 ± 0.7
386 K, 6902.3 kPa, Fluid (supercritical or subcritical phases)	699.4 ± 1.1
390 K, 1433.6 kPa, Gas	49.9 ± 0.1
390 K, 2472.5 kPa, Gas	99.7 ± 0.2
390 K, 3645.5 kPa, Gas	199.8 ± 0.4
390 K, 4415.7 kPa, Gas	408.4 ± 0.7
395 K, 3789.8 kPa, Gas	199.8 ± 0.4
395 K, 4762.2 kPa, Gas	408.3 ± 0.7
400 K, 1484.4 kPa, Gas	49.8 ± 0.1
400 K, 2591.1 kPa, Gas	99.7 ± 0.2
400 K, 3931.9 kPa, Gas	199.7 ± 0.3
400 K, 5109.3 kPa, Gas	408.2 ± 0.6
405 K, 4073 kPa, Gas	199.7 ± 0.3
405 K, 5458.7 kPa, Gas	408.1 ± 0.6
410 K, 1534.9 kPa, Gas	49.8 ± 0.1
410 K, 2708 kPa, Gas	99.6 ± 0.2
410 K, 4212.5 kPa, Gas	199.6 ± 0.3
410 K, 5806.1 kPa, Gas	407.9 ± 0.6
415 K, 4350.8 kPa, Gas	199.5 ± 0.3
415 K, 6157.7 kPa, Gas	407.7 ± 0.6
420 K, 1584.7 kPa, Gas	49.7 ± 0.1
420 K, 2823 kPa, Gas	99.5 ± 0.2
420 K, 4487.8 kPa, Gas	199.4 ± 0.3
420 K, 6507.1 kPa, Gas	407.5 ± 0.6
425 K, 4623.8 kPa, Gas	199.2 ± 0.3
425 K, 6857.2 kPa, Gas	407.2 ± 0.6
430 K, 1633.5 kPa, Gas	49.7 ± 0.1
430 K, 2936 kPa, Gas	99.3 ± 0.2
430 K, 4758.7 kPa, Gas	199.1 ± 0.3

mass density
Details	Gas	Liquid
360.73 K	–	723.7 ± 0.3 kg/m3
366.5 K	182.7 ± 3 kg/m3	–
369.78 K	205.8 ± 3 kg/m3	–
369.83 K	–	644 ± 0.3 kg/m3
371.67 K	231.2 ± 3 kg/m3	–
371.85 K	–	616.3 ± 0.3 kg/m3
374.16 K	–	571.5 ± 0.5 kg/m3
374.31 K	255.3 ± 3 kg/m3	–
375.35 K	287.6 ± 3 kg/m3	–
376.38 K	–	508.8 ± 1.2 kg/m3
376.41 K	323.1 ± 3.1 kg/m3	–
376.87 K	–	451.6 ± 5.7 kg/m3
376.93 K	408.8 ± 3.4 kg/m3 and 414.2 ± 3.5 kg/m3	414.2 ± 5.7 kg/m3
